Results as given in patent US9815796B2 (Merck Sharp & Dohme Corp., priority 2013, dated 2017).

Molecular target: human PDE2A1 (Homo sapiens (Human), UniProt O00408)
Test: IMAP FP PDE selectivity panel, human PDE2A1
Type: biochemical
Settings: Human PDE2, Lab B; read-out: Human PDE2 Ki (nM) - Lab B
Outline: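 GST-tagged human PDE2A1 expressed in insect cells, run at room temperature for 60 min with 50 nM FAM-cAMP containing 1000 nM cGMP, pH 7.2 Tris/MgCl2 buffer. IMAP fluorescence polarization read after binding step.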

Sequence of human PDE2A1 (O00408 other isoform, or with tags, fused parts or gaps): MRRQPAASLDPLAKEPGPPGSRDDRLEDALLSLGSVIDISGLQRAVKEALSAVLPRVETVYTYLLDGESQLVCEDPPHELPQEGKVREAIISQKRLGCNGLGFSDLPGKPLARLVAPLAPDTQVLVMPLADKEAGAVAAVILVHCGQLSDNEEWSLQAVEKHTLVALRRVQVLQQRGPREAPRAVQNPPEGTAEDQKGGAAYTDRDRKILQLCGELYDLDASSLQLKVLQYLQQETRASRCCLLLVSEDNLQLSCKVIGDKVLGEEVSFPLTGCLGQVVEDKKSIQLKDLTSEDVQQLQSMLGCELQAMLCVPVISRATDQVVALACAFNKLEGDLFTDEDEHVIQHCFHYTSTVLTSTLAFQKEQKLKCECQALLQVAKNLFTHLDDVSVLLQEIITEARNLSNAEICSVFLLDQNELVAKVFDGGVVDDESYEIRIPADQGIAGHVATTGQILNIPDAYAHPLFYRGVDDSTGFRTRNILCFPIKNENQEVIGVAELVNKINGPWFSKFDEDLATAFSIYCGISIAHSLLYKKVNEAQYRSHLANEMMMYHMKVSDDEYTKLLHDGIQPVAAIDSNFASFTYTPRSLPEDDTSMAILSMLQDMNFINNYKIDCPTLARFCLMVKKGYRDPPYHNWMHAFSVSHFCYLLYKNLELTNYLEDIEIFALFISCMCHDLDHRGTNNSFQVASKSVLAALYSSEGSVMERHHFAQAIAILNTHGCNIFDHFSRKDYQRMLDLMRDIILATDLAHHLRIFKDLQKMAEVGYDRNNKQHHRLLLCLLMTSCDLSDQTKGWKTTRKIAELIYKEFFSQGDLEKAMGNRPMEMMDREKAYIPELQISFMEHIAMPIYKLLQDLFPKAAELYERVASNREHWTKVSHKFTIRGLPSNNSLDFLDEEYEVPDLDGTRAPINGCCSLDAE

Compound | Ki [nM]
CC[C@@H](NC(=O)c1cc(=O)[nH]c(-c2ncccn2)n1)c1ccc2c(c1)OC(F)(F)O2 [Example 590, N-[(1R)-1-(2,2-difluoro-1,3-benzodioxol-5-yl)propyl]-6-oxo-1,6-dihydro-2,2′-bipyrimidine-4-carboxamide] | 34
COc1cc(C(F)(F)F)ccc1C(C)(C)NC(=O)c1cc(=O)[nH]c(C)n1 [Example 594, N-{1-[2-methoxy-4-(trifluoromethyl)phenyl]-1-methylethyl}-2-methyl-6-oxo-1,6-dihydropyrimidine-4-carboxamide] | 120
Cc1nc(C(=O)NC(C)(C)c2ccc(OC(F)(F)F)cc2F)cc(=O)[nH]1 [Example 597, N-{1-[2-fluoro-4-(trifluoromethoxy)phenyl]-1-methylethyl}-2-methyl-6-oxo-1,6-dihydropyrimidine-4-carboxamide] | 137
CCc1nc(C(=O)N[C@H](C)c2ccc(OC(F)(F)F)c(F)c2)cc(=O)[nH]1 [Example 598, 2-ethyl-N-{(1R)-1-[3-fluoro-4-(trifluoromethoxy)phenyl]ethyl}-6-oxo-1,6-dihydropyrimidine-4-carboxamide] | 3.7
CCc1nc(C(=O)NC(C)(C)c2ccc(C(F)(F)F)cc2)cc(=O)[nH]1 [Example 600, 2-ethyl-N-{1-methyl-1-[4-(trifluoromethyl)phenyl]ethyl}-6-oxo-1,6-dihydropyrimidine-4-carboxamide] | 21
Cc1nc(C(=O)NC(C)(C)c2ccc3c(c2)OC(F)(F)O3)cc(=O)[nH]1 [Example 604, N-[1-(2,2-difluoro-1,3-benzodioxol-5-yl)-1-methylethyl]-2-methyl-6-oxo-1,6-dihydropyrimidine-4-carboxamide] | 108
Cc1nc(C(=O)N[C@@H](c2ccc(OC(F)F)c(F)c2)C(C)C)cc(=O)[nH]1 [Example 624, N-{(1R)-1-[4-(difluoromethoxy)-3-fluorophenyl]-2-methylpropyl}-2-methyl-6-oxo-1,6-dihydropyrimidine-4-carboxamide] | 17
Cc1nc(C(=O)NC2(c3ccc(OC(C)(C)C)cc3)CC2)cc(=O)[nH]1 [Example 626, N-[1-(4-tert-butoxyphenyl)cyclopropyl]-2-methyl-6-oxo-1,6-dihydropyrimidine-4-carboxamide] | 58
Cc1nc(C(=O)NC2(c3ccc(CC(F)(F)F)cc3)CC2)cc(=O)[nH]1 [Example 627, 2-methyl-6-oxo-N-{1-[4-(2,2,2-trifluoroethyl)phenyl]cyclopropyl}-1,6-dihydropyrimidine-4-carboxamide] | 46
Cc1nc(C(=O)N[C@@H](c2ccc(OC(F)F)c(F)c2)C(C)(C)C)cc(=O)[nH]1 [Example 630, N-{(1R)-1-[4-(difluoromethoxy)-3-fluorophenyl]-2,2-dimethylpropyl}-2-methyl-6-oxo-1,6-dihydropyrimidine-4-carboxamide] | 5.1
Cc1nc(C(=O)N[C@@H](c2ccc(OC(F)F)c(F)c2)C2(C)CC2)cc(=O)[nH]1 [Example 631, N-[(R)-[4-(difluoromethoxy)-3-fluorophenyl](1-methylcyclopropyl)methyl]-2-methyl-6-oxo-1,6-dihydropyrimidine-4-carboxamide] | 13
CC[C@@H](NC(=O)c1cc(=O)[nH]c(C)n1)c1ccc2c(c1)OC(F)(F)O2 [Example 632, N-[(1R)-1-(2,2-difluoro-1,3-benzodioxol-5-yl)propyl]-2-methyl-6-oxo-1,6-dihydropyrimidine-4-carboxamide] | 106
Cc1nc(C(=O)N[C@@H](c2ccc3c(c2)OC(F)(F)O3)C(C)(C)C)cc(=O)[nH]1 [Example 633, N-[(1R)-1-(2,2-difluoro-1,3-benzodioxol-5-yl)-2,2-dimethylpropyl]-2-methyl-6-oxo-1,6-dihydropyrimidine-4-carboxamide] | 16
Cc1nc(C(=O)N[C@@](C)(CO)c2ccc(C(F)(F)F)cc2)cc(=O)[nH]1 [Example 635, N-{(1R)-2-hydroxy-1-methyl-1-[4-(trifluoromethyl)phenyl)ethyl}-2-methyl-6-oxo-1,6-dihydropyrimidine-4-carboxamide] | 59
Cc1nc(C(=O)N[C@](C)(CO)c2ccc(C(F)(F)F)cc2)cc(=O)[nH]1 [Example 636, N-{(1S)-2-hydroxy-1-methyl-1-[4-(trifluoromethyl)phenyl]ethyl}-2-methyl-6-oxo-1,6-dihydropyrimidine-4-carboxamide] | 19
CCc1nc(C(=O)N[C@](C)(CO)c2ccc(C(F)(F)F)cc2Cl)cc(=O)[nH]1 [Example 639, N-{(1S)-1-[2-chloro-4-(trifluoromethyl)phenyl]-2-hydroxy-1-methylethyl}-2-ethyl-6-oxo-1,6-dihydropyrimidine-4-carboxamide] | 2
Cc1nc(C(=O)N[C@](C)(CO)c2ccc(C(F)(F)F)cc2Cl)cc(=O)[nH]1 [Example 640, N-{(1S)-1-[2-chloro-4-(trifluoromethyl)phenyl]-2-hydroxy-1-methylethyl}-2-methyl-6-oxo-1,6-dihydropyrimidine-4-carboxamide] | 4.4
Cc1nc(C(=O)NC(C)(C)c2ccc(C(F)(F)F)c(Cl)c2)cc(=O)[nH]1 [Example 641, N-{1-[3-chloro-4-(trifluoromethyl)phenyl]-1-methylethyl}-2-methyl-6-oxo-1,6-dihydropyrimidine-4-carboxamide] | 32

The remaining lines, values ahead:

Ki [nM] | Compound
30 | O=C(N[C@@H](c1ccc2c(c1)OC(F)(F)O2)C1CC1)c1cc(=O)[nH]c(-c2ncccn2)n1 [Example 591, N-[(R)-cyclopropyl(2,2-difluoro-1,3-benzodioxol-5-yl)methyl]-6-oxo-1,6-dihydro-2,2′-bipyrimidine-4-carboxamide]
15 | CC(C)[C@@H](NC(=O)c1cc(=O)[nH]c(-c2ncccn2)n1)c1ccc2c(c1)OC(F)(F)O2 [Example 592, N-[(1R)-1-(2,2-difluoro-1,3-benzodioxol-5-yl)-2-methylpropyl]-6-oxo-1,6-dihydro-2,2′-bipyrimidine-4-carboxamide]
37 | Cc1nc(C(=O)NC(C)(C)c2ccc(C(F)(F)F)cc2C)cc(=O)[nH]1 [Example 595, 2-methyl-N-{1-methyl-1-[2-methyl-4-(trifluoromethyl)phenyl]ethyl}-6-oxo-1,6-dihydropyrimidine-4-carboxamide]
10 | CCc1nc(C(=O)N[C@H](C)c2ccc(S(F)(F)(F)(F)F)cc2)cc(=O)[nH]1 [Example 599, 2-ethyl-6-oxo-N-{(1R)-1-[4-(pentafluoro-λ^6-sulfanyl)phenyl]ethyl}-1,6-dihydropyrimidine-4-carboxamide]
7.2 | CCc1nc(C(=O)N[C@@H](c2ccc(C(F)(F)F)c(F)c2)C2CC2)cc(=O)[nH]1 [Example 603, N-{(R)-cyclopropyl[3-fluoro-4-(trifluoromethyl)phenyl]methyl}-2-ethyl-6-oxo-1,6-dihydropyrimidine-4-carboxamide]
102 | Cc1nc(C(=O)NC(CO)(CO)c2ccc(C(F)(F)F)cc2)cc(=O)[nH]1 [Example 605, N-{2-hydroxy-1-(hydroxymethyl)-1-[4-(trifluoromethyl)phenyl]ethyl}-2-methyl-6-oxo-1,6-dihydropyrimidine-4-carboxamide]
237 | Cc1nc(C(=O)N[C@H](C)c2ccc3c(c2)OC(F)(F)O3)cc(=O)[nH]1 [Example 606, N-[(1R)-1-(2,2-difluoro-1,3-benzodioxol-5-yl)ethyl]-2-methyl-6-oxo-1,6-dihydropyrimidine-4-carboxamide]
48 | Cc1nc(C(=O)N[C@@H](c2ccc3c(c2)OC(F)(F)O3)C(C)C)cc(=O)[nH]1 [Example 607, N-[(1R)-1-(2,2-difluoro-1,3-benzodioxol-5-yl)-2-methylpropyl]-2-methyl-6-oxo-1,6-dihydropyrimidine-4-carboxamide]
3.2 | CCc1nc(C(=O)NC(C)(C)c2ccc(C(F)(F)F)cc2Cl)cc(=O)[nH]1 [Example 608, N-{1-[2-chloro-4-(trifluoromethyl)phenyl]-1-methylethyl}-2-ethyl-6-oxo-1,6-dihydropyrimidine-4-carboxamide]
94 | Cc1nc(C(=O)N[C@@H](c2ccc3c(c2)OC(F)(F)O3)C2CC2)cc(=O)[nH]1 [Example 609, N-[(R)-cyclopropyl(2,2-difluoro-1,3-benzodioxol-5-yl)methyl]-2-methyl-6-oxo-1,6-dihydropyrimidine-4-carboxamide]
51 | Cc1nc(C(=O)NC2(c3ccc(C(F)(F)F)cc3F)CC2)cc(=O)[nH]1 [Example 625, N-{1-[2-fluoro-4-(trifluoromethyl)phenyl]cyclopropyl}-2-methyl-6-oxo-1,6-dihydropyrimidine-4-carboxamide]
87 | Cc1nc(C(=O)NC2(c3ccc(OC(F)F)cc3)CC2)cc(=O)[nH]1 [Example 628, N-{1-[4-(difluoromethoxy)phenyl]cyclopropyl}-2-methyl-6-oxo-1,6-dihydropyrimidine-4-carboxamide]
53 | Cc1nc(C(=O)N[C@@H](c2ccc(OC(F)F)c(F)c2)C2CC2)cc(=O)[nH]1 [Example 629, N-{(R)-cyclopropyl[4-(difluoromethoxy)-3-fluorophenyl]methyl]-2-methyl-6-oxo-1,6-dihydropyrimidine-4-carboxamide]
29 | Cc1nc(C(=O)N[C@@H](c2ccc3c(c2)OC(F)(F)O3)C2(C)CC2)cc(=O)[nH]1 [Example 634, N-[(R)-(2,2-difluoro-1,3-benzodioxol-5-yl)(1-methylcyclopropyl)methyl]-2-methyl-6-oxo-1,6-dihydropyrimide-4-carboxamide]
16 | Cc1nc(C(=O)NC2(c3ccc(C(F)(F)F)cc3Cl)CC2)cc(=O)[nH]1 [Example 637, N-{1-[2-chloro-4-(trifluoromethyl)phenyl]cyclopropyl}-2-methyl-6-oxo-1,6-dihydropyrimidine-4-carboxamide]
12 | CCc1nc(C(=O)N[C@](C)(CO)c2ccc(C(F)(F)F)cc2)cc(=O)[nH]1 [Example 638, 2-ethyl-N-{(1S)-2-hydroxy-1-methyl-1-[4-(trifluoromethyl)phenyl]ethyl}-6-oxo-1,6-dihydropyrimidine-4-carboxamide]
